Measured values as given in patent US10166290B2, “Intralesional (Intratumoral) dinitrochlorobenzene and associated compounds coadministered with checkpoint inhibitors for cancer treatment including treatment of metastatic cutaneous cancers” (priority 2017, dated 2019).
Read-outs that look alike come from different tables or passages of the source.

Columns and labels:
[1] = system: metastatic cutaneous tumor nodules; conditions: some 53 rounds of intralesional treatment, published data (3), cited from earlier work
[2] = Side effects of intralesional DNCB injections in the case reports; type: in vivo, human
Text: Patient #3 was […] when they saw their local physician in upstate New York because of a pigmented posterior scalp lesion. Biopsy at that time was originally read as a (benign) blue nevus. The diagnosis was later felt to be incorrect after a recurrent lesion at the same location continued to advance, becoming larger and bleeding when they combed their hair. The reoccurance led to a rebiopsy, now one year after the original biopsy which had been read as benign. […] A re-review of the slides from the first biopsy was then carried out. […] The patient was referred to the Memorial Sloane Kettering Hospital in New York City and was prepared for urgent wide excision and skin grafting of their posterior scalp lesions. […] The operative procedure was cancelled and the patient was referred. At the time of presentation initial radiographic evaluation for distant disease was negative. They received intralesional DNCB injections of between two and 10 satellite lesions every 4-6 weeks. On several occasions histologic or fine needle aspiration biopsy was carried out to continue to confirm the malignant nature of the lesions before intralesional injection. Biopsies were also carried out in order to confirm the absence of malignant cells in some post-injection inflammatory sites. […] Four months after their presentation, they were noted to have fewer than usual malignant lesions for injection, and received only 2 DNCB injections. However 1 month later they underwent 10 DNCB injections. One month after that they underwent DNCB injections of 8 malignant scalp lesions. Another month later they underwent intralesional DNCB injection of 10 malignant satellite scalp lesions. One and two months later they underwent DNCB injection of 8 lesions on each of the two visits. Five weeks later and 5 weeks after that, 2 lesions were injected on each visit. Chest xray and distant metastatic evaluations remained negative. The injection sites were being routinely pre-anesthetized with 0.5% lidocaine injections containing 1:100,000 epinephrine a few minutes before the injections with DNCB in acetone. Nevertheless the DNCB injection sites were uncomfortable for 4-6 hours after the lidocaine wore off, frequently with slight residual “soreness” the next day. Their last-mentioned round of two injections took place 11 months after the beginning of their injections. No new lesions were apparent for the next 2 months. The patient reported that after this last mentioned round of two injections, there was residual scalp discomfort for 8 days. […] Their strength and activity remained normal, including frequent vigorous dancing with their spouse. They often brought photographs of their scalp taken between visits. They occasionally reported sensations in uninjected areas in the scalp, ear or mastoid regions. No new lesions were apparent for 2 months.
(§1) A drug mask and latex gloves should be used when working with the DNCB powder while preparing its dilution and preparation for injection. […] It should be noted that DNCB powder is irritating, and is also immunogenic because of its haptene like properties. […] Therefore preadministration of lidocaine or another injectable anesthetic should be used to infiltrate the tumor nodule injection site prior to the injection into the same site of the DNCB solution in acetone.

[3] = system: progressive, locally metastatic melanoma; test: Intralesional DNCB injections into melanoma satellite / in transit metastatic lesions, case reports of three patients; type: in vivo, human
Text: Following are the case reports of three long term (over ten year) survivors treated with intralesional DNCB in the setting of what was apparently uncontrollable, progressive, locally metastatic melanoma, ordinarily lethal as a result of subsequent progressive metastatic disease to the liver, lungs and/or brain.
Patient #1 was […] when they presented for treatment with progressive satellitosis and in transit metastases in their right leg. Four years previously they had undergone elsewhere a wide excision and split thickness skin grafting for a Clark Level IV melanoma of their right calf. […] One month prior to their presentation with satellitosis, recurrence had been noticed in the skin of the right popliteal fossa, and slightly higher. Their surgeon had planned to do a local excision in the region but had desisted when, at the time of their skin incision, multiple metastatic deposits were grossly visible in the deep dermal and subcutaneous regions. […] Two weeks after presentation, at the time of their first round of intralesional injections, the patient was noted to have 14 metastatic lesions in the posterior thigh region. These were each infiltrated with xylocaine and injected with DNCB. Each lesion was individually marked and followed. It was later estimated that 13 of the 14 lesions injected on this round ultimately regressed. A month after the first round of injections the patient underwent a second round of injections into five lesions on the posterior thigh. Four weeks after their second round of injections, a third round of injections was carried out for 10 lesions which had newly appeared. […] Accordingly the patient was taken to the operating room and an excision was carried out. […]
Patient #3 was […] when they saw their local physician in upstate New York because of a pigmented posterior scalp lesion. Biopsy at that time was originally read as a (benign) blue nevus. […] The reoccurance led to a rebiopsy, now one year after the original biopsy which had been read as benign. […]

[4] = Solubility of DNCB powder in acetone; type: physicochemical; conditions: acetone diluent
Text: as §1

O=[N+]([O-])c1ccc(Cl)c([N+](=O)[O-])c1 [DNCB, 2, 4 dinitrochlorobenzene]
side effects of intralesional treatment [1]: local, consisting of erythema or ulceration, not life-threatening, and not associated with any internal organ damage or defects | side effects of intralesional treatment ([1]; listed as dinitrochlorobenzene): without the undesirable checkpoint inhibitor potential side effect of attacks against normal organs | side effects of intralesional treatment ([1]; listed as dinitrohalogenated compound): side effects essentially restricted to only side effects related to inflammation at the local injection sites | constitutional symptoms such as fatigue, fever, or malaise ([2]; Patient #3): no constitutional symptoms | duration of injection site discomfort after the lidocaine wore off ([2]; Patient #3, DNCB in acetone, sites pre-anesthetized with 0.5% lidocaine): 4 to 6 h | facial swelling after injections ([2]; Patient #3, after round of 3 lesions injected): mild facial swelling for a few days | duration of residual scalp discomfort ([2]; Patient #3, after round of two injections 11 months after beginning): 8 days | local effect of the DNCB solution in acetone on injection ([2]; solution in acetone): irritating locally, and causes pain at the injection site | time apparently disease free between last injections and death ([3]; Patient #1, after sixth round of injections): 30 years | time patient remained well with no evidence of metastasis after end of injections ([3]; Patient #2): 12 years | period with no apparent melanoma following last intralesional injection ([3]; Patient #3): 18 year | solubility in acetone [4]: ready solubility
